Measurements published in patent US9085555B2, “Complement pathway modulators and uses thereof” (priority 2011, dated 2015).

biological target: Factor D (Homo sapiens (Human), UniProt P00746); assay: biochemical; format: biochemical; conditions: read-out: IC50
Sequence (P00746 26-253): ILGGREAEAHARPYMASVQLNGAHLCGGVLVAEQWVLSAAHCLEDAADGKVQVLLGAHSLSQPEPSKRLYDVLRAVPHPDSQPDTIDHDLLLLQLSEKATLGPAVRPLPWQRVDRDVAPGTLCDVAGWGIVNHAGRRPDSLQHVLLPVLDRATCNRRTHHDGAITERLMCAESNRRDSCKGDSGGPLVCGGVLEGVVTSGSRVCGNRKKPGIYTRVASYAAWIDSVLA

Which IC50 does the source give for NC(=O)n1cc(NC(=O)N2[C@@H]3C[C@@H]3C[C@H]2C(=O)NCc2cccc(Cl)c2F)c2ccc(OCC(=O)O)cc21 [Example 376, (1-Carbamoyl-3-{[(1R,3S,5R)-3-(3-chloro-2-fluoro-benzylcarbamoyl)-2-aza-bicyclo[3.1.0]hexane-2-carbonyl]-amino}-1H-indol-6-yloxy)-acetic acid] here?
Its IC50 is 0.247 µM.

How did the IC50 turn out when NC(=O)n1cc(NC(=O)N2[C@@H]3C[C@@H]3C[C@H]2C(=O)NCc2cccc(Cl)c2F)c2cc(CC(=O)O)ccc21 [Example 377, (1-Carbamoyl-3-{[(1R,3S,5R)-3-(3-chloro-2-fluoro-benzylcarbamoyl)-2-aza-bicyclo[3.1.0]hexane-2-carbonyl]-amino}-1H-indol-5-yl)-acetic acid] was run?
Its IC50 is 0.02 µM.

NC(=O)n1cc(NC(=O)N2[C@@H]3C[C@@H]3C[C@H]2C(=O)NCc2cccc(Cl)c2F)c2ccc(CC(=O)O)cc21 [Example 378, (1-Carbamoyl-3-{[(1R,3S,5R)-3-(3-chloro-2-fluoro-benzylcarbamoyl)-2-aza-bicyclo[3.1.0]hexane-2-carbonyl]-amino}-1H-indol-6-yl)-acetic acid] was tested. Which IC50 did it give?
The IC50 was 0.024 µM.

How did the IC50 turn out when NC(=O)n1cc(NC(=O)N2[C@@H]3C[C@@H]3C[C@H]2C(=O)NCc2cccc(Cl)c2F)c2cc(OCCO)ccc21 [Example 379, (1R,3S,5R)-2-aza-bicyclo[3.1.0]hexane-2,3-dicarboxylic acid 2-{[1-carbamoyl-5-(2-hydroxy-ethoxy)-1H-indol-3-yl]-amide}3-(3-chloro-2-fluoro-benzylamide)] was run?
Its IC50 is 0.005 µM.

How did the IC50 turn out when NC(=O)n1cc(NC(=O)N2CCS[C@H]2C(=O)NCc2cccc(Cl)c2F)c2cc(OCCO)ccc21 [Example 380, S)-Thiazolidine-2,3-dicarboxylic acid 3-{[1-carbamoyl-5-(2-hydroxy-ethoxy)-1H-indol-3-yl]-amide}2-(3-chloro-2-fluoro-benzylamide] was run?
Its IC50 is 0.017 µM.

With NC(=O)n1cc(NC(=O)N2[C@@H]3C[C@@H]3C[C@H]2C(=O)Nc2cccc(OC(F)(F)F)c2)c2cc(OCCO)ccc21 [Example 381, (1R,3S,5R)-2-Aza-bicyclo[3.1.0]hexane-2,3-dicarboxylic acid 2-{[1-carbamoyl-5-(2-hydroxy-ethoxy)-1H-indol-3-yl]-amide}3-[(3-trifluoromethoxy-phenyl)-amide]] as the compound, how does the IC50 read?
Its IC50 is 0.057 µM.

With C[C@@]1(F)C[C@@H](C(=O)NCc2cccc(Cl)c2F)N(C(=O)Nc2cn(C(N)=O)c3ccc(OCCO)cc23)C1 [Example 383, 2S,4R)-4-Fluoro-4-methyl-pyrrolidine-1,2-dicarboxylic acid 1-{[1-carbamoyl-5-(2-hydroxy-ethoxy)-1H-indol-3-yl]-amide}2-(3-chloro-2-fluoro-benzylamide] as the compound, how does the IC50 read?
Its IC50 is 0.004 µM.

Which IC50 does the source give for NC(=O)n1cc(NC(=O)N2[C@@H]3C[C@@H]3C[C@H]2C(=O)NCc2cccc(Cl)c2F)c2ccc(CCO)cc21 [Example 384, 1R,3S,5R)-2-Aza-bicyclo[3.1.0]hexane-2,3-dicarboxylic acid 2-{[1-carbamoyl-6-(2-hydroxy-ethyl)-1H-indol-3-yl]-amide}3-(3-chloro-2-fluoro-benzylamide] here?
The IC50 was 0.032 µM.

For NC(=O)n1cc(NC(=O)N2[C@@H]3C[C@@H]3C[C@H]2C(=O)NCc2cccc(Cl)c2F)c2cc(CCO)ccc21 [Example 385, 1R,3S,5R)-2-Aza-bicyclo[3.1.0]hexane-2,3-dicarboxylic acid 2-{[1-carbamoyl-5-(2-hydroxy-ethyl)-1H-indol-3-yl]-amide}3-(3-chloro-2-fluoro-benzylamide], which IC50 is on record?
Its IC50 is 0.007 µM.

Which IC50 does the source give for CC(C)(O)COc1ccc2c(c1)c(NC(=O)N1C3CC3C[C@H]1C(=O)NCc1cccc(Cl)c1F)cn2C(N)=O (stereo partly drawn) [Example 386, 1R,3S,5R)-2-Aza-bicyclo[3.1.0]hexane-2,3-dicarboxylic acid 2-{[1-carbamoyl-5-(2-hydroxy-2-methyl-propoxy)-1H-indol-3-yl]-amide}3-(3-chloro-2-fluoro-benzylamide] here?
Its IC50 is 0.008 µM.

Which IC50 does the source give for CN(C)CCOc1ccc2c(c1)c(NC(=O)N1[C@@H]3C[C@@H]3C[C@H]1C(=O)NCc1cccc(Cl)c1F)cn2C(N)=O [Example 387, 1R,3S,5R)-2-Aza-bicyclo[3.1.0]hexane-2,3-dicarboxylic acid 2-{[1-carbamoyl-5-(2-dimethylamino-ethoxy)-1H-indol-3-yl]-amide}3-(3-chloro-2-fluoro-benzylamide] here?
Its IC50 is 0.057 µM.

Which IC50 does the source give for NC(=O)n1cc(NC(=O)N2[C@@H]3C[C@@H]3C[C@H]2C(=O)NCc2cccc(Cl)c2F)c2cc(OCCN3CCCC3)ccc21 [Example 388, 1R,3S,5R)-2-Aza-bicyclo[3.1.0]hexane-2,3-dicarboxylic acid 2-{[1-carbamoyl-5-(2-pyrrolidin-1-yl-ethoxy)-1H-indol-3-yl]-amide}3-(3-chloro-2-fluoro-benzylamide] here?
The IC50 was 0.028 µM.

With NC(=O)n1cc(NC(=O)N2[C@@H]3C[C@@H]3C[C@H]2C(=O)NCc2cccc(Cl)c2F)c2cc(OCCn3ccnc3)ccc21 [Example 389, 1R,3S,5R)-2-Aza-bicyclo[3.1.0]hexane-2,3-dicarboxylic acid 2-{[1-carbamoyl-5-(2-imidazol-1-yl-ethoxy)-1H-indol-3-yl]-amide}3-(3-chloro-2-fluoro-benzylamide] as the compound, how does the IC50 read?
Its IC50 is 0.03 µM.

Which IC50 does the source give for CC(C)(C)OC(=O)COc1ccc2c(c1)c(NC(=O)N1[C@@H]3C[C@@H]3C[C@H]1C(=O)NCc1ccccc1F)cn2C(N)=O [Example 390, (1-Carbamoyl-3-{[(1R,3S,5R)-3-(2-fluoro-benzylcarbamoyl)-2-aza-bicyclo[3.1.0]hexane-2-carbonyl]-amino}-1H-indol-5-yloxy)-acetic acid tert-butyl ester] here?
Its IC50 is 0.038 µM.

With NC(=O)n1cc(NC(=O)N2[C@@H]3C[C@@H]3C[C@H]2C(=O)NCc2ccccc2F)c2cc(OCC(=O)O)ccc21 [Example 391, (1-Carbamoyl-3-{[(1R,3S,5R)-3-(2-fluoro-benzylcarbamoyl)-2-aza-bicyclo[3.1.0]hexane-2-carbonyl]-amino}-1H-indol-5-yloxy)-acetic acid] as the compound, how does the IC50 read?
Its IC50 is 0.03 µM.

Which IC50 does the source give for NC(=O)n1cc(NC(=O)N2C3CC3C[C@H]2C(=O)NCc2cccc(Cl)c2F)c2ccc(O)cc21 (stereo partly drawn) [Example 392, 1R,3S,5R)-2-Aza-bicyclo[3.1.0]hexane-2,3-dicarboxylic acid 2-[(1-carbamoyl-6-hydroxy-1H-indol-3-yl)-amide]3-(3-chloro-2-fluoro-benzylamide] here?
The IC50 was 0.007 µM.

Which IC50 does the source give for NC(=O)n1cc(NC(=O)N2C[C@H](F)C[C@H]2C(=O)NCc2cccc(Cl)c2F)c2ccc(O)cc21 [Example 393, 2S,4R)-4-Fluoro-pyrrolidine-1,2-dicarboxylic acid 1-[(1-carbamoyl-6-hydroxy-1H-indol-3-yl)-amide]2-(3-chloro-2-fluoro-benzylamide] here?
Its IC50 is 0.007 µM.

COC(=O)COc1ccc2c(NC(=O)N3[C@@H]4C[C@@H]4C[C@H]3C(=O)NCc3cccc(Cl)c3F)cn(C(N)=O)c2c1 [Example 394, (1-Carbamoyl-3-{[(1R,3S,5R)-3-(3-chloro-2-fluoro-benzylcarbamoyl)-2-aza-bicyclo[3.1.0]hexane-2-carbonyl]-amino}-1H-indol-6-yloxy)-acetic acid methyl ester] was tested. Which IC50 did it give?
The IC50 was 0.07 µM.

For NC(=O)n1cc(NC(=O)N2C3CC3C[C@H]2C(=O)NCc2cccc(Cl)c2F)c2ccc(OCCO)cc21 (stereo partly drawn) [Example 395, 1R,3S,5R)-2-Aza-bicyclo[3.1.0]hexane-2,3-dicarboxylic acid 2-{[1-carbamoyl-6-(2-hydroxy-ethoxy)-1H-indol-3-yl]-amide}3-(3-chloro-2-fluoro-benzylamide], which IC50 is on record?
The IC50 was 0.025 µM.

With NC(=O)n1cc(NC(=O)N2C[C@@H](N)C[C@H]2C(=O)Nc2cccc(OC(F)(F)F)c2)c2ccc(OCc3ccccc3)cc21 [Example 398, (2S,4S)-4-Amino-pyrrolidine-1,2-dicarboxylic acid 1-[(6-benzyloxy-1-carbamoyl-1H-indol-3-yl)-amide]2-[(3-trifluoromethoxy-phenyl)-amide]] as the compound, how does the IC50 read?
Its IC50 is 3.05 µM.

How did the IC50 turn out when NC(=O)n1cc(NC(=O)N2CCNC[C@H]2C(=O)NCc2cccc(Cl)c2)c2ccccc21 [Example 399, S)-piperazine-1,2-dicarboxylic acid 1-[(1-carbamoyl-1H-indol-3-yl)-amide]2-(3-chloro-benzylamide] was run?
Its IC50 is 1.6 µM.

Which IC50 does the source give for NCc1ccc(-c2cccc(NC(=O)[C@@H]3CCCN3C(=O)Nc3cn(C(N)=O)c4ccccc34)c2)cc1 [Example 400, (S)-Pyrrolidine-1,2-dicarboxylic acid 2-[(4′-aminomethyl-biphenyl-3-yl)-amide]1-[(1-carbamoyl-1H-indol-3-yl)-amide]] here?
The IC50 was 3.95 µM.

How did the IC50 turn out when NCc1ccc(-c2cccc(NC(=O)[C@@H]3CCCN3C(=O)Nc3cn(C(N)=O)c4ccccc34)c2)c(F)c1 [Example 401, (S)-Pyrrolidine-1,2-dicarboxylic acid 2-[(4′-aminomethyl-2′-fluoro-biphenyl-3-yl)-amide]1-[(1-carbamoyl-1H-indol-3-yl)-amide]] was run?
The IC50 was 1.05 µM.

Which IC50 does the source give for NC[C@H]1CC[C@@H](C(=O)Nc2cccc(OC(F)(F)F)c2)N1C(=O)Nc1cn(C(N)=O)c2ccccc12 [Example 402, (2S,5R)-5-Aminomethyl-pyrrolidine-1,2-dicarboxylic acid 1-[(1-carbamoyl-1H-indol-3-yl)-amide]2-[(3-trifluoromethoxy-phenyl)-amide]] here?
The IC50 was 0.3 µM.

Which IC50 does the source give for NC[C@H]1C[C@@H](C(=O)Nc2cccc(OC(F)(F)F)c2)N(C(=O)Nc2cn(C(N)=O)c3ccccc23)C1 [Example 403, (2S,4R)-4-Aminomethyl-pyrrolidine-1,2-dicarboxylic acid 1-[(1-carbamoyl-1H-indol-3-yl)-amide]2-[(3-trifluoromethoxy-phenyl)-amide]] here?
Its IC50 is 1 µM.

Which IC50 does the source give for NC[C@@H]1C[C@@H](C(=O)Nc2cccc(OC(F)(F)F)c2)N(C(=O)Nc2cn(C(N)=O)c3ccccc23)C1 [Example 404, (2S,4S)-4-Aminomethyl-pyrrolidine-1,2-dicarboxylic acid 1-[(1-carbamoyl-1H-indol-3-yl)-amide]2-[(3-trifluoromethoxy-phenyl)-amide]] here?
The IC50 was 1 µM.

With NC[C@H]1C[C@@H](C(=O)NCc2cccc(Cl)c2F)N(C(=O)Nc2cn(C(N)=O)c3ccccc23)C1 [Example 405, 2S,4R)-4-Aminomethyl-pyrrolidine-1,2-dicarboxylic acid 1-[(1-carbamoyl-1H-indol-3-yl)-amide]2-(3-chloro-2-fluoro-benzylamide] as the compound, how does the IC50 read?
The IC50 was 0.295 µM.
